Measured values: US7816521B2, “1,2,4-benzotriazine-1,4-dioxides” (Auckland Uniservices Limited, priority 2004, dated 2010)
pIC50: −log10 of the molar value.

Columns and labels:
[1] = system: HT29 multicellular layers; assay type: in vitro ADME; conditions: human
Description: A: Diagram of a Millicell® CM culture insert used for growing MCLs on a porous, collagen-coated Teflon membrane. B: H&E-stained transverse section of an HT-29 MCL three days after initiating growth with 10^6 cells. The Teflon membrane is ca 30 μm thick. C: Diffusion apparatus for measurement of transport through MCLs. D: Diffusion of TPZ (100 μM) through well oxygenated (open circles) and […] poorly oxygenated (filled circles) HT29 MCLs of equivalent thickness (141±5 μm). Concentrations are normalized to the initial concentration in the donor compartment (Co). The Lines are fits to a reaction-diffusion model. Also shown is the diffusion of compound #20 through a well oxygenated MCL of a similar thickness illustrating the effect of raising the diffusion coefficient from 4×10^−7 cm^2s^−1 to 1.4×10^−6 cm^2s^−1.
The diffusion coefficients in HT29 MCL (DMCL) of compounds representative of the invention were determined either by: • 1. Measurement of drug diffusion in HT29 MCL (grown in culture inserts and seeded at 1×10^6 cells per insert and grown for 3-4 days) in a 2 chamber diffusion apparatus containing culture medium with measurement from both the donor and receiver compartments and gassing at ≧20% O2 to suppress bioreductive metabolism as described in Hicks et al (Cancer Res. 2003, 63, 5970-5977). Samples of medium are taken at intervals, drug concentrations determined by HPLC or LCMS and the concentration-time profile was fitted to Fick's second law of diffusion and the differential equation was solved numerically to obtain the estimate of DMCL.
OR • 2. Calculated from the logistic regression equation
where • a. Log P7.4 is the base 10 logarithm of the octanol-water partition coefficient of the compound at pH 7.4 measured or calculated using the techniques described below • b. HD is the number of hydrogen bond donors (which is the sum of all NH— and OH-groups) • c. HA is the number of hydrogen bond acceptors (which is the sum of all N— and O-atoms) • d. Mr is the molecular weight of the non-ionised drug and a, g, d, a, x0, e, h, and b are regression coefficients as outlined in the table.
Values of the coefficient g are cell line dependent; this value has been determined as 0.3051 (SE 0.0427, CV 13.99%, p<0.001) for SiHa MCLs, and is set at zero for HT29 MCLs.

[2] = system: human colon carcinoma cell line HT-29; test: Proliferation assay (IC50) under aerobic and hypoxic conditions; assay type: cell-based; conditions: for pIC50: Homo sapiens, HT-29, HT29, anoxic, 4 hr exposure; for HCR: hypoxic cytotoxicity ratio: aerobic IC50 / hypoxic IC50, HT29
Description: Compounds representative of the invention were evaluated under both aerobic and hypoxic conditions in a proliferation assay (IC50) using the human colon carcinoma cell line HT-29 as previously described [Hay et al, J. Med. Chem, 2003, 46, 169]. For each experiment, compounds were simultaneously tested under both oxic and hypoxic conditions and included TPZ as an independent internal control at the front and back of the assay. In all cases, a 8-methyl-5-nitroquinoline derivative was used as a second internal control to confirm that strict hypoxia was present during the experiment [Siim et al., Br. J. Cancer 1994, 70, 596].

Compound | DMCL [1] | diffusion coefficient ([1]; 100 μM) | reduction in diffusion in poorly oxygenated versus well oxygenated HT29 MCLs ([1]; 100 μM) [fold] | pIC50 [2] | HCR [2]
Nc1n[n+]([O-])c2ccccc2[n+]1[O-] [A, tirapazamine, reference compound] | 3.97 × 10^−7 cm^2s^−1 | 4×10^−7 cm^2s^−1 | 2 | – | –
Cc1ccc2c(c1)[n+]([O-])c(N)n[n+]2[O-] [B, 6-Methyl-1,2,4-benzotriazin-3-amine 1,4-Dioxide] | 5.43 × 10^−7 cm^2s^−1 | – | – | 4.89 | 35.8
Nc1n[n+]([O-])c2cc(Cl)ccc2[n+]1[O-] [C, 7-Chloro-1,2,4-benzotriazin-3-amine 1,4-Dioxide] | 8.70 × 10^−7 cm^2s^−1 | – | – | 6.14 | 28.5
Nc1n[n+]([O-])c2c(Cl)cccc2[n+]1[O-] [D, 8-Chloro-1,2,4-benzotriazin-3-amine 1,4-Dioxide] | 6.69 × 10^−7 cm^2s^−1 | – | – | 6.26 | 13.6
CS(=O)(=O)c1ccc2c(c1)[n+]([O-])nc(N)[n+]2[O-] [E, 7-(Methylsulfonyl)-1,2,4-benzotriazin-3-amine 1,4-Dioxide] | 2.13 × 10^−7 cm^2s^−1 | – | – | 5.00 | 12.0
Cc1ccc2c(c1)[n+]([O-])nc(NCCN(C)C)[n+]2[O-] [F, 7-Methyl-N-[2-(dimethylamino)ethyl]-1,2,4-benzotriazin-3-amine 1,4-Dioxide] | 5.09 × 10^−7 cm^2s^−1 | – | – | 5.97 | 34.3
CCCN(CCC)CCNc1n[n+]([O-])c2ccccc2[n+]1[O-] [G] | 1.71 × 10^−6 cm^2s^−1 | – | – | 5.78 | 81.6
Cc1ccc2c(c1)[n+]([O-])c(NCCN(C)C)n[n+]2[O-] [H, N^1,N^1-Dimethyl-N^2-(6-methyl-1,4-dioxido-1,2,4-benzotriazin-3-yl)-1,2-ethanediamine] | 3.99 × 10^−7 cm^2s^−1 | – | – | 5.73 | 159.0
CCc1n[n+]([O-])c2ccccc2[n+]1[O-] [I] | 2.61 × 10^−6 cm^2s^−1 | – | – | 5.17 | 54.2
COCCc1n[n+]([O-])c2ccccc2[n+]1[O-] [J] | 2.09 × 10^−6 cm^2s^−1 | – | – | 5.46 | 49.4
[O-][n+]1nc(NCCCCCCNc2c3ccccc3nc3ccccc23)[n+]([O-])c2ccccc21 [K] | 6.17 × 10^−7 cm^2s^−1 | – | – | 7.60 | 31.8
CN(CCCNC(=O)c1cccc2cc3ccccc3nc12)CCCNc1n[n+]([O-])c2ccccc2[n+]1[O-] [L] | 3.82 × 10^−7 cm^2s^−1 | – | – | 7.30 | 154.0
CN(CCCNC(=O)c1cccc2ccc(-c3ccncc3)nc12)CCCNc1n[n+]([O-])c2ccccc2[n+]1[O-] [M] | 9.80 × 10^−8 cm^2s^−1 | – | – | 6.90 | 119.0
Cc1ccc2c(c1)[n+]([O-])c(NCCCN(C)CCCNC(=O)c1cccc3cc4ccccc4nc13)n[n+]2[O-] [N] | 1.05 × 10^−7 cm^2s^−1 | – | – | 6.65 | 134.0
